Laboratory results: publication doi:10.1101/2021.07.28.21261232v1 (medrxiv, 2021)

Columns and labels:
in vitro = conditions: human, microsomes
Bovine Chymotrypsin = Bovine Chymotrypsin (Bos taurus, UniProt P00766)
Human Thrombin = Human Thrombin (Homo sapiens, UniProt P00734)
Human Elastase = conditions: pH 8.0, room temperature, 50 mM Tris, 100 mM NaCl, Brij 35

| Structure (SMILES) | microsomal CLint (in vitro) | IC50 (Bovine Chymotrypsin) | IC50 (Human Thrombin) | IC50 (Human Elastase) |
| --- | --- | --- | --- | --- |
| COc1cccc2[nH]c(C(=O)N[C@@H](CC(C)C)C(=O)N[C@@H](C[C@@H]3CCNC3=O)C(=O)CO)cc12 [compound 1, PF-00835231] | 7.47 ± 0.88 µL/min/mg |  |  |  |
| COc1cccc2[nH]c(C(=O)N[C@@H](CC(C)C)C(=O)N[C@H](C#N)C[C@@H]3CCNC3=O)cc12 [compound 2, N-[(2S)-1-({(1S)-1-Cyano-2-[(3S)-2-oxopyrrolidin-3-yl]ethyl}amino)-4-methyl-1-oxopentan-2-yl]-4-methoxy-1H-indole-2-carboxamide] | 34.4 ± 0.7 µL/min/mg |  |  |  |
| CC(C)[C@H](NS(C)(=O)=O)C(=O)N1C[C@H]2[C@@H]([C@H]1C(=O)N[C@@H](C[C@@H]1CCNC1=O)C(=O)c1nc3ccccc3s1)C2(C)C [compound 4, (1R,2S,5S)-N-{(2S)-1-(1,3-Benzothiazol-2-yl)-1-oxo-3-[(3S)-2-oxopyrrolidin-3-yl]propan-2-yl}-6,6-dimethyl-3-[N-(methylsulfonyl)-L-valyl]-3-azabicyclo[3.1.0]hexane-2 carboxamide] | 127 ± 3 µL/min/mg |  |  |  |
| CC(C)(C)[C@H](NC(=O)C(F)(F)F)C(=O)N1C[C@H]2[C@@H]([C@H]1C(=O)N[C@H](C#N)C[C@@H]1CCNC1=O)C2(C)C [compound 6, (1R,2S,5S)-N-{(1S)-1-Cyano-2-[(3S)-2-oxopyrrolidin-3-yl]ethyl}-6,6-dimethyl-3-[3-methyl-N-(trifluoroacetyl)-L-valyl]-3-azabicyclo[3.1.0]hexane-2-carboxamide] |  | > 100 µM | > 100 µM | > 100 µM |
